Measurements: patent publication US8053553B2, “Targeting host proteinases as a therapeutic strategy against viral and bacterial pathogens” (Socpra Sciences Sante Et Humaines, priority 2007, dated 2011)
pKi: −log10 of the molar value. Non-standard residues stand in square brackets, D forms with d. Residues, ends and D or L forms follow the SMILES beside them. βAla = NCCC(=O)O; Sar = CNCC(=O)O

Target: T1, furin (Homo sapiens, UniProt P09958)
T1 construct: made in house; host or cells: Drosophila S2 cells (Invitrogen expression system)
Assay: biochemical
Conditions: not given

T1 sequence (P09958 108-794 limits assumed): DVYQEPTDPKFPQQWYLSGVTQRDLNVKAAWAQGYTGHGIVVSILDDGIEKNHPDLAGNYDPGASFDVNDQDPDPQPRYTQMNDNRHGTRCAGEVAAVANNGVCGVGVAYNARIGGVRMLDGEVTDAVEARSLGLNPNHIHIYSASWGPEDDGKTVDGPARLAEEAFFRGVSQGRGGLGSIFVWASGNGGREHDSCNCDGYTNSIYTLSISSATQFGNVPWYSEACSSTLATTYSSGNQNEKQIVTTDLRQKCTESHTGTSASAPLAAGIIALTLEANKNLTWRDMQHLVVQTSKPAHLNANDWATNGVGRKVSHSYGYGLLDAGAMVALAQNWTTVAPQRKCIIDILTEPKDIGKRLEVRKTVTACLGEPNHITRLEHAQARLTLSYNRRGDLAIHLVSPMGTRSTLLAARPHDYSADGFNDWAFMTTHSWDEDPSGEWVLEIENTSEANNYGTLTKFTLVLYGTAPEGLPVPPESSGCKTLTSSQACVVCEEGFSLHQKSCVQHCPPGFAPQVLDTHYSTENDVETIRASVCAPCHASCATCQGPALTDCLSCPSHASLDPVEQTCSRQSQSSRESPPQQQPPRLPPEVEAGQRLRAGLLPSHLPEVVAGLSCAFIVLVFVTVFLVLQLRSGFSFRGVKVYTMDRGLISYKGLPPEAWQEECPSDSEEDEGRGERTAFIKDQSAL

Row | Compound | pKi
1 | C[C@@H](O)[C@H](N)C(=O)N1CCC[C@H]1C(=O)N[C@@H](CCC(N)=O)C(=O)N[C@@H](CCCNC(=N)N)C(=O)N[C@@H](CCCNC(N)=O)C(=O)N[C@@H](CCCNC(=N)N)C(=O)N[C@@H](CCCNC(=N)N)C(=O)N[C@@H](CCCNC(=N)N)C(=O)N[C@@H](CCCCN)C(=O)N[C@@H](CCCCN)C(=O)N[C@@H](CCCNC(=N)N)C(=O)NCC(N)=O [TPQR4RRRKKRG] | < 7.00

Same assay, conditions: furin, Pyr-RTKR-AMC substrate; alanine scanning mutagenesis of the H5 furin cleavage sequence (Table 2); read-out: Ki

Row | Compound | pKi
2 | C[C@H](N)C(=O)N[C@@H](C)C(=O)N[C@@H](CCCNC(=N)N)C(=O)N[C@@H](CCC(=O)O)C(=O)N[C@@H](CCCNC(=N)N)C(=O)N[C@@H](CCCNC(=N)N)C(=O)N[C@@H](CCCNC(=N)N)C(=O)N[C@@H](CCCCN)C(=O)N[C@@H](CCCCN)C(=O)N[C@@H](CCCNC(=N)N)C(N)=O (H-AARERRRKKR-NH2) | < 7.00
3 | CC(C)[C@H](NC(=O)[C@H](CCCNC(=N)N)NC(=O)[C@H](CCCCN)NC(=O)[C@H](CCCCN)NC(=O)[C@H](CCCNC(=N)N)NC(=O)[C@H](C)NC(=O)[C@H](CCCNC(=N)N)NC(=O)[C@H](CCC(=O)O)NC(=O)[C@H](CCCNC(=N)N)NC(=O)[C@@H]1CCCN1C(=O)[C@@H](N)[C@@H](C)O)C(N)=O (H-TPRERARKKRV-NH2) | < 7.00
4 | C[C@H](NC(=O)[C@H](C)NC(=O)[C@@H]1CCCN1C(=O)[C@@H](N)[C@@H](C)O)C(=O)N[C@@H](C)C(=O)N[C@@H](CCCNC(=N)N)C(=O)N[C@@H](CCCNC(=N)N)C(=O)N[C@@H](CCCCN)C(=O)N[C@@H](CCCCN)C(=O)N[C@@H](CCCNC(=N)N)C(N)=O (H-TPAAARRKKR-NH2) | < 7.00
5 | C[C@H](NC(=O)[C@H](CCCCN)NC(=O)[C@H](CCCNC(=N)N)NC(=O)[C@H](CCCNC(=N)N)NC(=O)[C@H](CCCNC(=N)N)NC(=O)[C@H](CCC(=O)O)NC(=O)[C@H](CCCNC(=N)N)NC(=O)[C@@H]1CCCN1C(=O)[C@@H](N)[C@@H](C)O)C(=O)N[C@@H](CCCNC(=N)N)C(=O)N(C)CC(N)=O (H-TPRERRRKAR[Sar]-NH2) | < 7.00
6 | C[C@H](NC(=O)[C@H](CCCNC(=N)N)NC(=O)[C@H](CCCNC(=N)N)NC(=O)[C@H](CCCNC(=N)N)NC(=O)[C@H](CCC(=O)O)NC(=O)[C@H](CCCNC(=N)N)NC(=O)[C@@H]1CCCN1C(=O)[C@@H](N)[C@@H](C)O)C(=O)N[C@@H](CCCCN)C(=O)N[C@@H](CCCNC(=N)N)C(=O)N(C)CC(N)=O (H-TPRERRRAKR[Sar]-NH2) | < 7.00
7 | C[C@H](NC(=O)[C@H](CCCCN)NC(=O)[C@H](CCCCN)NC(=O)[C@H](CCCNC(=N)N)NC(=O)[C@H](CCCNC(=N)N)NC(=O)[C@H](CCCNC(=N)N)NC(=O)[C@H](CCC(=O)O)NC(=O)[C@H](CCCNC(=N)N)NC(=O)[C@@H]1CCCN1C(=O)[C@@H](N)[C@@H](C)O)C(=O)N(C)CC(N)=O (H-TPRERRRKKA[Sar]-NH2) | < 7.00
8 | C[C@H](NC(=O)[C@H](CCCNC(=N)N)NC(=O)[C@H](CCC(=O)O)NC(=O)[C@H](CCCNC(=N)N)NC(=O)[C@@H]1CCCN1C(=O)[C@@H](N)[C@@H](C)O)C(=O)N[C@@H](CCCNC(=N)N)C(=O)N[C@@H](CCCCN)C(=O)N[C@@H](CCCCN)C(=O)N[C@@H](CCCNC(=N)N)C(=O)N(C)CC(N)=O (H-TPRERARKKR[Sar]-NH2) | < 7.00
9 | C[C@H](N)C(=O)N[C@@H](C)C(=O)N[C@@H](CCCNC(=N)N)C(=O)N[C@@H](CCC(=O)O)C(=O)N[C@@H](CCCNC(=N)N)C(=O)N[C@@H](CCCNC(=N)N)C(=O)N[C@@H](CCCNC(=N)N)C(=O)N[C@@H](CCCCN)C(=O)N[C@@H](CCCCN)C(=O)N[C@@H](CCCNC(=N)N)C(=O)NCC(N)=O (H-AARERRRKKRG-NH2) | < 7.00
10 | C[C@H](NC(=O)[C@H](C)NC(=O)[C@H](CCCNC(=N)N)NC(=O)[C@H](CCCNC(=N)N)NC(=O)[C@H](CCC(=O)O)NC(=O)[C@H](CCCNC(=N)N)NC(=O)[C@@H]1CCCN1C(=O)[C@@H](N)[C@@H](C)O)C(=O)N[C@@H](CCCCN)C(=O)N[C@@H](CCCNC(=N)N)C(=O)N(C)CC(N)=O (H-TPRERRAAKR[Sar]-NH2) | < 7.00
11 | CC(C)[C@H](NC(=O)[C@H](CCCNC(=N)N)NC(=O)[C@H](CCCCN)NC(=O)[C@H](C)NC(=O)[C@H](CCCNC(=N)N)NC(=O)[C@H](CCCNC(=N)N)NC(=O)[C@H](CCCNC(=N)N)NC(=O)[C@H](CCC(=O)O)NC(=O)[C@H](CCCNC(=N)N)NC(=O)[C@@H]1CCCN1C(=O)[C@@H](N)[C@@H](C)O)C(N)=O (H-TPRERRRAKRV-NH2) | < 7.00
12 | C[C@H](NC(=O)[C@@H]1CCCN1C(=O)[C@@H](N)[C@@H](C)O)C(=O)N[C@@H](CCC(=O)O)C(=O)N[C@@H](CCCNC(=N)N)C(=O)N[C@@H](CCCNC(=N)N)C(=O)N[C@@H](CCCNC(=N)N)C(=O)N[C@@H](CCCCN)C(=O)N[C@@H](CCCCN)C(=O)N[C@@H](CCCNC(=N)N)C(=O)N(C)CC(N)=O (H-TPAERRRKKR[Sar]-NH2) | < 7.00
13 | CC(C)[C@H](NC(=O)[C@H](CCCNC(=N)N)NC(=O)[C@H](CCCCN)NC(=O)[C@H](CCCCN)NC(=O)[C@H](CCCNC(=N)N)NC(=O)[C@H](CCCNC(=N)N)NC(=O)[C@H](C)NC(=O)[C@H](C)NC(=O)[C@H](C)NC(=O)[C@@H]1CCCN1C(=O)[C@@H](N)[C@@H](C)O)C(N)=O (H-TPAAARRKKRV-NH2) | < 7.00
14 | C[C@H](NC(=O)[C@H](C)NC(=O)[C@@H]1CCCN1C(=O)[C@@H](N)[C@@H](C)O)C(=O)N[C@@H](C)C(=O)N[C@@H](CCCNC(=N)N)C(=O)N[C@@H](CCCNC(=N)N)C(=O)N[C@@H](CCCCN)C(=O)N[C@@H](CCCCN)C(=O)N[C@@H](CCCNC(=N)N)C(=O)N(C)CC(N)=O (H-TPAAARRKKR[Sar]-NH2) | < 7.00
15 | C[C@H](NC(=O)[C@H](CCCNC(=N)N)NC(=O)[C@H](CCCNC(=N)N)NC(=O)[C@H](CCCNC(=N)N)NC(=O)[C@H](CCC(=O)O)NC(=O)[C@H](CCCNC(=N)N)NC(=O)[C@@H]1CCCN1C(=O)[C@@H](N)[C@@H](C)O)C(=O)N[C@@H](CCCCN)C(=O)N[C@@H](CCCNC(=N)N)C(N)=O (H-TPRERRRAKR-NH2) | < 7.00
16 | C[C@H](NC(=O)[C@H](C)NC(=O)[C@H](CCC(=O)O)NC(=O)[C@H](CCCNC(=N)N)NC(=O)[C@@H]1CCCN1C(=O)[C@@H](N)[C@@H](C)O)C(=O)N[C@@H](C)C(=O)N[C@@H](CCCCN)C(=O)N[C@@H](CCCCN)C(=O)N[C@@H](CCCNC(=N)N)C(=O)N(C)CC(N)=O (H-TPREAAAKKR[Sar]-NH2) | < 7.00
17 | C[C@H](NC(=O)[C@H](CCC(=O)O)NC(=O)[C@H](CCCNC(=N)N)NC(=O)[C@@H]1CCCN1C(=O)[C@@H](N)[C@@H](C)O)C(=O)N[C@@H](CCCNC(=N)N)C(=O)N[C@@H](CCCNC(=N)N)C(=O)N[C@@H](CCCCN)C(=O)N[C@@H](CCCCN)C(=O)N[C@@H](CCCNC(=N)N)C(=O)N(C)CC(N)=O (H-TPREARRKKR[Sar]-NH2) | < 7.00

Same assay, conditions: furin, Pyr-RTKR-AMC substrate; optimization of the inhibitory peptides (Table 3); read-out: Ki

Row | Compound | pKi
18 | CC(C)C[C@H](NC(=O)[C@H](CCCNC(=N)N)NC(=O)[C@H](CCCCN)NC(=O)[C@H](CCCCN)NC(=O)[C@H](CCCNC(=N)N)NC(=O)[C@H](CCCNC(=N)N)NC(=O)[C@H](CCCNC(=N)N)NC(=O)[C@H](C)NC(=O)[C@H](CCCNC(=N)N)NC(=O)[C@H](CCC(N)=O)NC(=O)[C@@H]1CCCN1C(=O)[C@@H](N)[C@@H](C)O)C(N)=O (H-TPQRARRRKKRL-NH2) | < 7.00
19 | C[C@H](NC(=O)[C@H](CCCNC(=N)N)NC(=O)[C@H](CCC(N)=O)NC(=O)[C@@H]1CCCN1C(=O)[C@@H](N)[C@@H](C)O)C(=O)N[C@@H](CCCNC(=N)N)C(=O)N[C@@H](CCCNC(=N)N)C(=O)N[C@@H](CCCNC(=N)N)C(=O)N[C@@H](CCCCN)C(=O)N[C@@H](CCCCN)C(=O)N[C@@H](CCCNC(=N)N)C(=O)NCCC(N)=O (H-TPQRARRRKKR[βAla]-NH2) | < 7.00
20 | C[C@H](NC(=O)[C@H](CCCNC(=N)N)NC(=O)[C@H](CCC(N)=O)NC(=O)[C@@H]1CCCN1C(=O)[C@@H](N)[C@@H](C)O)C(=O)N[C@@H](CCCNC(=N)N)C(=O)N[C@@H](CCCNC(=N)N)C(=O)N[C@@H](CCCNC(=N)N)C(=O)N[C@@H](CCCCN)C(=O)N[C@@H](CCCCN)C(=O)N[C@@H](CCCNC(=N)N)C(=O)N[C@H](CCCNC(=N)N)C(N)=O (H-TPQRARRRKKR[dR]-NH2) | < 7.00
21 | C[C@@H](O)[C@H](N)C(=O)N1CCC[C@H]1C(=O)N[C@@H](CCCN=C(N)N)C(=O)NCC(=O)N[C@@H](CCCN=C(N)N)C(=O)N[C@@H](CCCN=C(N)N)C(=O)N[C@@H](CCCN=C(N)N)C(=O)N[C@@H](CCCCN)C(=O)N[C@@H](CCCCN)C(=O)N[C@@H](CCCN=C(N)N)C(=O)NCC(N)=O (H-TPRGRRRKKRG-NH2) | 7.33
22 | C[C@@H](O)[C@H](N)C(=O)N1CCC[C@H]1C(=O)N[C@@H](CCC(N)=O)C(=O)N[C@@H](CCCNC(=N)N)C(=O)N[C@@H](Cc1c[nH]cn1)C(=O)N[C@@H](CCCNC(=N)N)C(=O)N[C@@H](CCCNC(=N)N)C(=O)N[C@@H](CCCNC(=N)N)C(=O)N[C@@H](CCCCN)C(=O)N[C@@H](CCCCN)C(=O)N[C@@H](CCCNC(=N)N)C(=O)NCC(N)=O (H-TPQRHRRRKKRG-NH2) | < 7.00
23 | C[C@H](NC(=O)[C@H](CCCNC(=N)N)NC(=O)[C@H](CCC(N)=O)NC(=O)[C@@H]1CCCN1C(=O)[C@@H](N)[C@@H](C)O)C(=O)N[C@@H](CCCNC(=N)N)C(=O)N[C@@H](CCCNC(=N)N)C(=O)N[C@@H](CCCNC(=N)N)C(=O)N[C@@H](CCCCN)C(=O)N[C@@H](CCCCN)C(=O)N[C@@H](CCCNC(=N)N)C(=O)N[C@@H](CCC(N)=O)C(N)=O (H-TPQRARRRKKRQ-NH2) | < 7.00
24 | C[C@@H](O)[C@H](N)C(=O)N1CCC[C@H]1C(=O)N[C@@H](CCC(N)=O)C(=O)N[C@@H](CCCNC(=N)N)C(=O)N[C@@H](CC1CCCCC1)C(=O)N[C@@H](CCCNC(=N)N)C(=O)N[C@@H](CCCNC(=N)N)C(=O)N[C@@H](CCCNC(=N)N)C(=O)N[C@@H](CCCCN)C(=O)N[C@@H](CCCCN)C(=O)N[C@@H](CCCNC(=N)N)C(=O)NCC(N)=O [TPQR7RRRKKRG] | < 7.00
25 | C[C@@H](O)[C@H](N)C(=O)N1CCC[C@H]1C(=O)N[C@@H](CCC(N)=O)C(=O)N[C@@H](CCCNC(=N)N)C(=O)N[C@@H](CO)C(=O)N[C@@H](CCCNC(=N)N)C(=O)N[C@@H](CCCNC(=N)N)C(=O)N[C@@H](CCCNC(=N)N)C(=O)N[C@@H](CCCCN)C(=O)N[C@@H](CCCCN)C(=O)N[C@@H](CCCNC(=N)N)C(=O)NCC(N)=O (H-TPQRSRRRKKRG-NH2) | < 7.00
